The values that follow are results of earlier work, collected in patent US20050239189A1, “Oxidant-scavenging compound for anaerobic treatment” (priority 2004, published 2005).

SMILES strings stand for the structures.

The test system of this data set is CVOC dehalogenation. The settings on record: eight case studies reported by Regenesis, Inc. (2000).

Consider `CC(O)C(=O)O` (stereo not shown) [Lactic Acid], for which the “stimulation of CVOC dehalogenation” value is listed as “stimulated CVOC dehalogenation”.
